Measurements reported in ChEMBL document CHEMBL1121688 (J Med Chem, 1981).

How the values were obtained:
[1] = molecular target: Dopamine receptor; test: Relative affinity for dopamine receptor by displacement of [3H]spiroperidol (2.2 nM) from (in vitro) dopamine binding sites in rat caudate nuclei
[2] = Concentration required (in vitro) to displace 50% specific binding of [3H]clozapine to non-muscarinic sites in rat brain in presence of 1 uM atropine; assay type: tissue-based
[3] = molecular target: Muscarinic acetylcholine receptor; test: Concentration required (in vitro) to displace 50% specific binding of [3H]clozapine to Muscarinic acetylcholine receptor in rat brain; assay type: tissue-based
[4] = Concentration required (in vitro) to displace 50% specific binding of [3H]clozapine to sites in rat brain

| Compound | IC50 [1] [nM] | IC50 [2] [nM] | IC50 [3] [nM] | IC50 [4] [nM] |
| --- | --- | --- | --- | --- |
| CC1CCN(C2=Cc3ccccc3Cc3ccc(Cl)cc32)CC1 |  | > 10000 | > 10000 |  |
| CN1CCN(C2=Cc3cc(Cl)ccc3Cc3ccccc32)CC1 | 342 | 13 | 670 |  |
| CN1CCN(C2=Cc3ccccc3Cc3ccc(Cl)cc32)CC1 | 39 | 10 | 290 |  |
| CN1CCN(C2=Nc3cc(Cl)ccc3Nc3ccccc32)CC1 [CLOZAPINE] |  | 13 |  |  |
| CN1CCN(C2=Nc3ccccc3Nc3ccc(Cl)cc32)CC1 [ISOCLOZAPINE] | 758 |  |  | 17 |

The next lines start with the values.

| IC50 [1] [nM] | IC50 [2] [nM] | IC50 [3] [nM] | IC50 [4] [nM] | Compound |
| --- | --- | --- | --- | --- |
| 32400 | 88 | 12 |  | CN1CCN(C2=Nc3cc(Cl)ccc3N(C)c3ccccc32)CC1 |
| > 10000 | > 10000 | > 10000 |  | CC1CCN(C2=Cc3cc(Cl)ccc3Cc3ccccc32)CC1 |
| 678 | 7 | 622 |  | CN1CCC(C2=Cc3cc(Cl)ccc3Cc3ccccc32)CC1 |
| 808 | 3.7 | 610 |  | CN1CCN(C2=Cc3ccccc3Cc3ccccc32)CC1 |
| 2480 | 38 | 49 |  | CN1CCN(C2=Nc3cc(Cl)ccc3Oc3ccccc32)CC1 [ISOLOXAPINE] |
